Two molecules from patent US6958145B2, “Synthesis of cyclic compounds” (Unisearch Limited, priority 2000, dated 2005) can be followed below.

In assay [1] the test system is AI-2 activity. The experiment in a line: V. harveyi bioassay for the detection of AI-2 activity. The class given is cell-based. As to conditions: V. harveyi BB170 luminescence. On the procedure: The V. harveyi bioassay was performed as described previously (Surette and Bassler, 1998). The V. harveyi reporter strain BB170 was grown for 16 hours at 30° C. with shaking in AB medium. Cells were diluted 1:5,000 into 30° C. prewarmed AB medium and 90 ul of the diluted suspension was added to wells containing supernatant. Furanones were added to the wells to achieve the desired final concentrations and the final volume in each well was adjusted with sterile medium to 100 ul. Ten ul of V. harveyi BB152 (AI-1−, AI-2+) supernatant was used as a positive control and 10 ul of E. coli DH5α supernatant or sterile media was used as a negative control. […] The microtiter plates were incubated at 30° C. with shaking at 175 rpm. Hourly determinations of the total luminescence were quantified using the chemiluminescent setting on a Wallac (Gaithersburg, Md.) model 1450 Microbeta Plus liquid scintillation counter. The V. harveyi cell density was monitored by the use of a microplate reader (Bio-Rad, Hercules, Calif.). Activity is reported as the percentage of activity obtained from V. harveyi BB152 cell-free supernatant. While the absolute values of luminescence varied considerably between experiments, the pattern of results obtained was reproducible.

Assay [2] has as its system AHL mediated quorum sensing.
The test system of assay [3] is two-component signal transduction. The experiment in a line: Taz-1 assay, two-component signal transduction. The format is cell-based, E. coli. As to conditions: beta-galactosidase readout. On the procedure:
The Taz-assay carried out according to the method of Jin and Inouye (1993) with the following alterations. E. coli RU1012 (pYT0301) were grown overnight in M9 medium at 37° C. supplemented with 100 ug/ml ampicillin and 50 ug/ml kanamycin. This overnight culture was then used to inoculate 50 ml M9 medium in side-arm flasks which were then incubated at 37° C. and shaken at 180 rpm. The OD610 of the growing cultures was monitored regularly and when the OD610=0.2 the cultures were placed on ice. Aspartate was added to side-arm flasks to give a final concentration of 3 mM (aspartate stock solution made up in M9 salts).
The test compound or mixtures of compounds were dissolved in ethanol and added to cultures to give the required final concentrations. Negative controls were prepared with equal volumes of ethanol. Cultures were then placed in a 37° C. incubator and shaken for 4 hours (OD610 approximately 0.7) before being removed and put on ice. Samples were then removed for […]eta-galactosidase assays carried out according to the method of Miller (1972).

Each structure is given as a SMILES string.

As to `CC1=CC(=C(Br)Br)OC1=O` [compound 64], in assay [1], the “AI-2 (AI-2 activity)” value was 80% reduction. The “AHL (inhibitor of AHL-mediated quorum sensing)” value in assay [2] is on record as “good”. For the same molecule, in assay [3], the “2 component (two-component signal transduction assay)” value is recorded as “No effect”.
`CC1=CC(=O)OC1(Br)C(Br)Br` (stereo not shown) [compound 72]: the “AI-2 (AI-2 activity)” value in assay [1] is reported as 97% reduction.
